Biological target: T1, Histone deacetylase 8 (Homo sapiens, UniProt Q9BY41)
T1 sequence (Q9BY41 whole entry): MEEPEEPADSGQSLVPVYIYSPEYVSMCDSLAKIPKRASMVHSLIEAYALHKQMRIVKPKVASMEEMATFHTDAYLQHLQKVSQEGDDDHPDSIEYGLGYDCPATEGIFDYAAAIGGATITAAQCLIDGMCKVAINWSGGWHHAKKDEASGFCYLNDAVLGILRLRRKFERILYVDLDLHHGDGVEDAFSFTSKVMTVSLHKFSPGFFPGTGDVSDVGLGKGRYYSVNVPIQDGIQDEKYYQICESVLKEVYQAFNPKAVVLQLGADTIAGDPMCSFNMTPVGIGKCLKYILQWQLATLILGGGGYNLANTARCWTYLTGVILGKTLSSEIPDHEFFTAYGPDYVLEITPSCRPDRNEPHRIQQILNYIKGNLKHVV
Assay: Enzymatic Assay
Method: HDAC-Glo I/II Assay Kit was purchased from Promega Corporation (Madison, Wis.), including the following components: HDAC-Glo I/II Buffer (25 mM Tris buffer, pH 8.0, supplemented with 137 mM: NaCl, 2.7 mM KCl, 1% v/v Triton X-100 and 1 mM: MgCl2), luminogenic substrates Boc-GAK(Ac)-aminoluciferin (HDAC-Glo I/II substrate), proprietary developer reagent (containing trypsin). Assay:The HDAC8 reaction was performed at room temperature in white 384-well polystyrene, flat-bottom microtiter plate (Greiner Bio-one, Monroe, N.C.) in a final volume of 20 μL. Test compounds were first diluted serially in DMSO and 100 nL were transferred to the plate wells by Echo 550 (Labcyte, Sunnyvale, Calif.) before the addition of other reaction components. The final concentration of DMSO in the assay was 0.5%. The HDAC-Glo I/II assay reagent was prepared by rehydration of lyophilized HDAC-Glo I/II substrate in 10 mL. HDAC-Glo I/II assay buffer followed with the addition of 10 μL of developer reagent. 10 uL of 3 nM HDAC8 in the HDAC-Glo I/II assay buffer were first dispensed into the microliter plate containing the compounds and incubated at room temperature for 30 min. The reactions were initiated with the addition of 10 uL HDAC-Glo I/II assay reagent with Multidrop.

Row | IC50 | SMILES
1 | in the range around 375 nM | O=C(NO)C(Cc1ccccc1)N1N=CC2C(Cl)=NC=CC21 (stereo not drawn) [US10723705, No. I-0055]
2 | in the range around 375 nM | O=C(NO)C(Cc1ccccc1)N1C=CC2C=C(Cl)C=NC21 (stereo not drawn) [US10723705, No. I-0195]
3 | in the range around 375 nM | O=C(NO)C(Cc1ccccc1)N1C=CC2C(Cl)=NC=CC21 (stereo not drawn) [US10723705, No. I-0196]

Reference: BindingDB's records for patent US10723705 (Incyte, 2020)
